Data set [1] is described as follows: Lipophilicity, log P of compound by shake flask method. The class given is physicochemical. The conditions noted are these: octanol/water.
The nature of another data set: cells. The settings on record: Mus musculus, BaF3, 72 h.
In a further data set the test system is HUVEC. Nature of the data set: Antiproliferative activity against recombinant human VEGF-stimulated HUVEC after 120 hrs by CCK8 assay. The class given is functional, cell-based. A general note: Tetrazolium assays rely on reduction of a dye to a coloured formazan, in cell work by metabolically active cells.
For data set [2], the target named is T1, Vascular endothelial growth factor receptor 2 (Homo sapiens, UniProt P35968). Nature of the data set: Inhibition of recombinant VEGFR2 (unknown origin) using poly (Glu, Tyr) 4:1 as substrate incubated for 60 mins by ELISA.
Data set [3] concerns the target Hepatocyte growth factor receptor (Homo sapiens, UniProt P08581). The data set can be described thus: Inhibition of recombinant c-Met (unknown origin) using poly (Glu, Tyr) 4:1 as substrate incubated for 60 mins by ELISA. In general terms: ELISA stands for enzyme-linked immunosorbent assay.
Data set [4] has as its target T1, Vascular endothelial growth factor receptor 2. Nature of the data set: Inhibition of VEGFR2 (unknown origin).

Molecules are shown by their SMILES.

What is called logP is the decadic logarithm of the partition coefficient of the neutral form, usually between octanol and water. In general, IC50 refers to the concentration that gives 50% inhibition.

T1 sequence (P35968 whole entry): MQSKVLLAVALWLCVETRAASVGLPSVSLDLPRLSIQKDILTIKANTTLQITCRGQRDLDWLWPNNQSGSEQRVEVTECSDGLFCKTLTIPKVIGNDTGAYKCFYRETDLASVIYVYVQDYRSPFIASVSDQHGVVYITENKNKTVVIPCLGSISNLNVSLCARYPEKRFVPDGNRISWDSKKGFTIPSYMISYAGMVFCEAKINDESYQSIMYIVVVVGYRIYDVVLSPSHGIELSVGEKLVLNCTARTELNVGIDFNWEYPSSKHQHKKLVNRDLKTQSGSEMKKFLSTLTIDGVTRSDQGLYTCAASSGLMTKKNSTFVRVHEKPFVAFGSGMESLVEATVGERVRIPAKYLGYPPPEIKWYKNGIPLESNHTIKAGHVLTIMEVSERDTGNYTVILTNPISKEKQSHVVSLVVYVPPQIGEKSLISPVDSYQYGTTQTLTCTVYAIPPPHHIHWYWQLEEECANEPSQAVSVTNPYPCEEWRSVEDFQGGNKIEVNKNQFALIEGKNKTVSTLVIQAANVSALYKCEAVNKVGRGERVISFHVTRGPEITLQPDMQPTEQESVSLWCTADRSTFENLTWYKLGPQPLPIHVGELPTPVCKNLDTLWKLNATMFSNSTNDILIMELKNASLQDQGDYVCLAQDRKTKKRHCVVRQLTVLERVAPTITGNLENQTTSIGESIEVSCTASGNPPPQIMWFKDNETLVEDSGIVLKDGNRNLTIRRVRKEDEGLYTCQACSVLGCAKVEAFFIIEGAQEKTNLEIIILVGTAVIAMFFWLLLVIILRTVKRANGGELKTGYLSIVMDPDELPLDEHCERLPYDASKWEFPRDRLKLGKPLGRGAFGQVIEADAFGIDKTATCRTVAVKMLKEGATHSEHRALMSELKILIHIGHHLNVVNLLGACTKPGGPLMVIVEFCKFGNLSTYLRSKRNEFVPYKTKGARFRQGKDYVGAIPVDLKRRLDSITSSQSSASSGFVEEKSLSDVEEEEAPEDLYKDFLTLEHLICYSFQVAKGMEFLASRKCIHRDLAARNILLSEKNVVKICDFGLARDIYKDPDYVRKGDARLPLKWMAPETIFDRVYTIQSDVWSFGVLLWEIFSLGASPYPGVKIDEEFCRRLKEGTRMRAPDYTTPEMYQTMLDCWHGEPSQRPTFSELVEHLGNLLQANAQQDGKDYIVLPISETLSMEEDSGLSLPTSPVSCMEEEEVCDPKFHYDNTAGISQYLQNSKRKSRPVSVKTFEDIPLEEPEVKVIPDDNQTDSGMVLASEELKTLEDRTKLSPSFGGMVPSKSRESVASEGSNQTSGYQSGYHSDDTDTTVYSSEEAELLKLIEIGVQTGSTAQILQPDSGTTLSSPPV
Hepatocyte growth factor receptor, sequence (P08581 whole entry): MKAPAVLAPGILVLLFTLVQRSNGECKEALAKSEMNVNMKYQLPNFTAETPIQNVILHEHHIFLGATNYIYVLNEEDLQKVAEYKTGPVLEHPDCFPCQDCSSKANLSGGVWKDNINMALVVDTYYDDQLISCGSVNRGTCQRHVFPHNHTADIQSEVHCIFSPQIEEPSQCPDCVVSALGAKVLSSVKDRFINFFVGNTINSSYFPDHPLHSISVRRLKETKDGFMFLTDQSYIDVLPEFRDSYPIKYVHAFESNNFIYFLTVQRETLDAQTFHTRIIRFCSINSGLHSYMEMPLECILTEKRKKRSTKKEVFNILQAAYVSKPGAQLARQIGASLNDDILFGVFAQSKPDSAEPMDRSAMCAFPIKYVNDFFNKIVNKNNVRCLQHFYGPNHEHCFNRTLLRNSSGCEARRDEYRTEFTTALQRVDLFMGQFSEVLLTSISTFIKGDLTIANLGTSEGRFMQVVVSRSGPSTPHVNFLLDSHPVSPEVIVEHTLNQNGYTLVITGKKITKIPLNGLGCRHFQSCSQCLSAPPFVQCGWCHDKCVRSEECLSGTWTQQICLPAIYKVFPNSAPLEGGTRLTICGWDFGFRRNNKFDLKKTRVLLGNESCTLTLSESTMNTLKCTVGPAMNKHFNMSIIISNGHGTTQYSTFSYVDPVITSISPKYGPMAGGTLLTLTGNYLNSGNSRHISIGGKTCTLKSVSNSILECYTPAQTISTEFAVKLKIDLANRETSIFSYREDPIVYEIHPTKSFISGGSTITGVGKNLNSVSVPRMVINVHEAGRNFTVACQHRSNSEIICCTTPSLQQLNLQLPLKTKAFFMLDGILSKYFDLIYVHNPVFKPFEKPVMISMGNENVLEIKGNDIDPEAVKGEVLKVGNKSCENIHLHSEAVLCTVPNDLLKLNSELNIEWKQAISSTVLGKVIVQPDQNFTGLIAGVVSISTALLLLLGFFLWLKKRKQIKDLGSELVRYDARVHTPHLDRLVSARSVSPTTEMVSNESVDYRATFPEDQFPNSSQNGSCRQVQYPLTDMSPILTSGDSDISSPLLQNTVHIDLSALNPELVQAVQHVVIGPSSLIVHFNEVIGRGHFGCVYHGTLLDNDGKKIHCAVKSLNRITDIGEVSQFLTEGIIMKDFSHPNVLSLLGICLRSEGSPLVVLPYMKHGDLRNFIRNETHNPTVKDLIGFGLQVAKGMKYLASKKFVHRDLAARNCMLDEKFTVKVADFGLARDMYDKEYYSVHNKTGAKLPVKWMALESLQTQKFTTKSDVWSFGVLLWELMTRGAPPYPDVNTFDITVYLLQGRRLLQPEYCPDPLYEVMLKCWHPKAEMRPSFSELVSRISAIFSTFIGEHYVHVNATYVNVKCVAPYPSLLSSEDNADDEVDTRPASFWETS

Regarding `Nc1ncnc(Oc2ccc(NC(=O)C3(C(=O)Nc4ccc(F)cc4)CC3)cc2F)c1/C=N/OCCN1CCCC1`, the logP in data set [1] (read-out: logP) is 3.5. The values for the IC50 in “cells” and in the data set with HUVEC were 162 nM and 168 nM, respectively.
Consider `CNc1ncnc(Oc2ccc(NC(=O)C3(C(=O)Nc4ccc(F)cc4)CC3)cc2F)c1/C=N/OC`, for which the IC50 in data set [2] was above 10000 nM; in “cells”, above 1000 nM; in data set [3] it was above 10000 nM. Moreover, the logP in data set [1] (read-out: logP) turned out to be 3.52.
On to `CCOC(=O)CO/N=C/c1c(N)ncnc1Oc1ccc(NC(=O)C2(C(=O)Nc3ccc(F)cc3)CC2)cc1F`, for which, in data set [1] (read-out: logP), the logP was 3.15. For the same molecule, the IC50 in “cells” was above 1000 nM.
For the molecule `Nc1ncnc(Oc2ccc(NC(=O)C3(C(=O)Nc4ccc(F)cc4)CC3)cc2F)c1/C=N/OCCCO`, the logP in data set [1] (read-out: logP) amounted to 2.67. Besides, the IC50 in “cells” was 110 nM; in the data set with HUVEC, 210 nM.
The molecule `COc1cc2nccc(Oc3ccc(NC(=O)C4(C(=O)Nc5ccc(F)cc5)CC4)cc3)c2cc1OC` [CABOZANTINIB] had a logP in data set [1] of 4.28.
`CO/N=C/c1c(N)ncnc1Oc1ccc2[nH]ccc2c1` had a half-inhibitory concentration (IC50) in data set [4] of 146 nM.
For the molecule `Nc1ncnc(Oc2ccc(NC(=O)C3(C(=O)Nc4ccc(F)cc4)CC3)cc2F)c1/C=N/O`, the logP in data set [1] (read-out: logP) turned out to be 2.62. The IC50 worked out at 194 nM in “cells” and 260 nM in the data set on HUVEC.
On the same counts, the results for `Nc1ncnc(Oc2ccc(NC(=O)C3(C(=O)Nc4ccc(F)cc4)CC3)cc2F)c1/C=N/OCC(O)CN1CCOCC1` (centres undefined) are 2.02, 158 nM and 720 nM.
On the same counts, the results for `CO/N=C/c1c(N)ncnc1Oc1ccc(NC(=O)C2(C(=O)Nc3ccc(F)cc3)CC2)cc1F` are 3.04, 166 nM and 320 nM.
For the molecule `C=CCO/N=C/c1c(N)ncnc1Oc1ccc(NC(=O)C2(C(=O)Nc3ccc(F)cc3)CC2)cc1F`, in data set [1] (read-out: logP), the logP stood at 3.65. The IC50 in the data set “cells” is 619 nM.
On the same counts, the results for `C#CCO/N=C/c1c(N)ncnc1Oc1ccc(NC(=O)C2(C(=O)Nc3ccc(F)cc3)CC2)cc1F` are 3.34 and 521 nM.
The corresponding values for `CC(C)(C)OC(=O)N/N=C/c1c(N)ncnc1Oc1ccc(NC(=O)C2(C(=O)Nc3ccc(F)cc3)CC2)cc1F` are 3.7 and 321 nM.
Take `Nc1ncnc(Oc2ccc(NC(=O)C3(C(=O)Nc4ccc(F)cc4)CC3)cc2F)c1/C=N/OCCCN1CCOCC1`: in data set [1] (read-out: logP), the logP was found to be 2.98. Further, the IC50 in the data set “cells” was 186 nM; in the data set with HUVEC, 427 nM.
For `Nc1ncnc(Oc2ccc(NC(=O)C3(C(=O)Nc4ccc(F)cc4)CC3)cc2F)c1/C=N/OCC(=O)N1CCOCC1`, the lipophilicity (logP) in data set [1] (read-out: logP) is 2.1. The IC50 in “cells” was 397 nM.
The corresponding values for `Nc1ncnc(Oc2ccc(NC(=O)C3(C(=O)Nc4ccc(F)cc4)CC3)cc2F)c1/C=N/OC1CCCCC1` are 4.69 and 879 nM.
In the case of `COc1cc2c(Oc3ccc(NC(=O)C4(C(=O)Nc5ccc(F)cc5)CC4)cc3F)ccnc2cc1OCCCN1CCOCC1` [FORETINIB], the logP in data set [1] (read-out: logP) was 4.28.
With `CCCCO/N=C/c1c(N)ncnc1Oc1ccc(NC(=O)C2(C(=O)Nc3ccc(F)cc3)CC2)cc1F`, the logP in data set [1] (read-out: logP) came out at 4.2. Also, the IC50 in “cells” turned out to be 626 nM.
Take `Nc1ncnc(Oc2ccc(NC(=O)C3(C(=O)Nc4ccc(F)cc4)CC3)cc2F)c1/C=N/OCCCN1CCCC1`: the logP in data set [1] (read-out: logP) worked out at 3.82. The IC50 is 119 nM in “cells” and 219 nM with HUVEC.
With `N/N=C/c1c(N)ncnc1Oc1ccc(NC(=O)C2(C(=O)Nc3ccc(F)cc3)CC2)cc1F`, the logP in data set [1] (read-out: logP) was 2.25. In the data set “cells”, this molecule came in with an IC50 of 765 nM.
The corresponding values for `CC(O)CO/N=C/c1c(N)ncnc1Oc1ccc(NC(=O)C2(C(=O)Nc3ccc(F)cc3)CC2)cc1F` (centres undefined) are 2.75 and 258 nM.
The corresponding values for `Nc1ncnc(Oc2ccc(NC(=O)C3(C(=O)Nc4ccc(F)cc4)CC3)cc2F)c1/C=N/OC1CCCC1` are 4.27 and 745 nM.
On the same counts, the results for `Nc1ncnc(Oc2ccc(NC(=O)C3(C(=O)Nc4ccc(F)cc4)CC3)cc2F)c1/C=N/OCCO` are 2.37 and 200 nM.
Take `CCO/N=C/c1c(N)ncnc1Oc1ccc(NC(=O)C2(C(=O)Nc3ccc(F)cc3)CC2)cc1F`: the logP in data set [1] (read-out: logP) came to 3.41. The IC50 in the data set “cells” was found to be 215 nM.
For `COCCCO/N=C/c1c(N)ncnc1Oc1ccc(NC(=O)C2(C(=O)Nc3ccc(F)cc3)CC2)cc1F`, the logP in data set [1] (read-out: logP) was determined as 3.18. In the data set “cells”, this molecule gave an IC50 of 243 nM.
The corresponding values for `Nc1ncnc(Oc2ccc(NC(=O)C3(C(=O)Nc4ccc(F)cc4)CC3)cc2F)c1/C=N/OCc1ccccc1` are 4.45 and 566 nM.
As for `CN(C)CCCO/N=C/c1c(N)ncnc1Oc1ccc(NC(=O)C2(C(=O)Nc3ccc(F)cc3)CC2)cc1F`, the logP in data set [1] (read-out: logP) is 3.23. Further, the IC50 came to 89 nM in “cells” and 110 nM with HUVEC.

The record behind these values is ChEMBL document CHEMBL3813593, “Design, synthesis and biological evaluation of 4-aminopyrimidine-5-cabaldehyde oximes as dual inhibitors of c-Met and VEGFR-2” (Bioorg Med Chem, 2016).
